Measured values: patent US8629167B2, “Selective androgen receptor modulators” (Radius Health, Inc., priority 2008, dated 2014)

These compounds were tested against androgen receptor (Rattus norvegicus (Rat), UniProt P15207) (assay: androgen receptor binding assay (fluorescence polarization, AR-Fluormone complex)). Conditions: not given.
Protocol: The assay was performed as specified by the manufacturer (Invitrogen, Madison, Wis.). Briefly, 1 μl of 10 mM compound was added to 500 μl of AR screening buffer in a 1.5 ml eppendorf tube to make a 2×10^−5 M stock. 10-fold serial dilutions of the test compounds were prepared ranging in concentration from 10^−5M to 10^−12 M. Each dilution was added in triplicate to a black 384-microtiter plate. The test compounds will be diluted 2-fold in the final reaction. 2×AR-Fluormone™ complex was prepared with 2 nM Flourmone AL Green™ and 30 nM AR. 25 μl of 2× complex was aliquoted to each reaction well, such that the final reaction volume was 50 μl per well. Plate was sealed with a foil cover and incubated in the dark at room temperature for 4 h. Polarization values for each well were measured. The polarization values were plotted against the concentration of the test compound. […] As a control, a competition curve for R1881 (methyltrienolone) was performed for each assay. Curve Fitting was performed using GraphPad Prism® software from GraphPad™ Software Inc. Binding data are reported as a single determination if the experiment was run once only and as the average of experiments if the binding experiment was performed two or more times with that compound.
Were multiple data points have been taken, the value reported is the average of the multiple determinations.

Chain of androgen receptor (P15207 whole entry, looked up): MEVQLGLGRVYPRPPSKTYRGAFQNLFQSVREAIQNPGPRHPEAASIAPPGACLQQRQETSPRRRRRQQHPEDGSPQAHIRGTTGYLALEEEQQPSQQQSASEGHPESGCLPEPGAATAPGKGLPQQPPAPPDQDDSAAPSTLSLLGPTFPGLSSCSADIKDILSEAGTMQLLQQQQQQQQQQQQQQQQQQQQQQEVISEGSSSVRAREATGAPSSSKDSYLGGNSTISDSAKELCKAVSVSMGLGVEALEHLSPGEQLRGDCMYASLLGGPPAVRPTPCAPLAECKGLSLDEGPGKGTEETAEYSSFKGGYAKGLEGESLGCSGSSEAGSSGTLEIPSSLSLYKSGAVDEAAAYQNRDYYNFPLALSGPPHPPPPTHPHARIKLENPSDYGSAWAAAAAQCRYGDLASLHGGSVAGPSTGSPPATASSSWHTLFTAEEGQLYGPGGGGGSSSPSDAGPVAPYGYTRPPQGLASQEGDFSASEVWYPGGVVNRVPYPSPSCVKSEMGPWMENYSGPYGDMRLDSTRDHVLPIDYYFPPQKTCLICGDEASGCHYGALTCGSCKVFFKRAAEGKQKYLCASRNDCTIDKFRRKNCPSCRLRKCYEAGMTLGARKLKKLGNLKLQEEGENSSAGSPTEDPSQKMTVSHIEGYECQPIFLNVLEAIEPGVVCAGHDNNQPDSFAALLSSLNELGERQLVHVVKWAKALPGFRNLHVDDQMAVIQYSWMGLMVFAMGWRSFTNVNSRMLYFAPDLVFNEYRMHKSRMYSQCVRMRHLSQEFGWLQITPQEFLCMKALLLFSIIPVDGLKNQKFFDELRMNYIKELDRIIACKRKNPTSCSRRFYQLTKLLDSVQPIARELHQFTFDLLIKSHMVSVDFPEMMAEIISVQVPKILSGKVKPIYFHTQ

| SMILES | IC50 [nM] |
| --- | --- |
| CCC(=O)O[C@@H](C)[C@@H](Nc1ccc(C#N)c(Cl)c1C)c1nnc(-c2ccc(C#N)cc2)o1 [Example 86, (1R,2S)-1-(3-Chloro-4-cyano-2-methylphenylamino)-1-(5-(4-cyanophenyl)-1,3,4-oxadiazol-2-yl)propan-2-yl propionate] | 120 |
| C[C@H](O)[C@@H](Nc1ccc(C#N)c2scc(Cl)c12)c1nnc(-c2ccc(C#N)cc2)o1 [Example 95, 3-Chloro-4-((1R,2S)-1-(5-(4-cyanophenyl)-1,3,4-oxadiazol-2-yl)-2-hydroxypropylamino)benzo[b]thiophene-7-carbonitrile] | 1 |
| [2H]c1ccc(-c2nnc([C@H](Nc3ccc(C#N)c(Cl)c3C)[C@H](C)O)o2)cc1 [Example 97, 2-Chloro-4-((1R,2S)-1-(5-(4-deuterophenyl)-1,3,4-oxadiazol-2-yl)-2-hydroxypropylamino)-3-methylbenzonitrile] | 18 |
| CCCC(=O)O[C@@H](C)[C@@H](Nc1ccc(C#N)c(Cl)c1C)c1nnc(-c2ccc(C#N)cc2)o1 [Example 85, (1R,2S)-1-(3-Chloro-4-cyano-2-methylphenylamino)-1-(5-(4-cyanophenyl)-1,3,4-oxadiazol-2-yl)propan-2-yl butyrate] | 10 |
| Cc1c(N[C@@H](c2nnc(-c3ccc(OS(N)(=O)=O)cc3)o2)[C@H](C)O)ccc(C#N)c1Cl [Example 93, 4-(5-((1R,2S)-1-(3-Chloro-4-cyano-2-methylphenylamino)-2-hydroxypropyl)-1,3,4-oxadiazol-2-yl)phenyl sulfamate] | 25 |
| Cc1c(N[C@@H](c2nnc(-c3ccccc3)o2)[C@H](C)OS(N)(=O)=O)ccc(C#N)c1Cl [Example 90, (1R,2S)-1-(3-Chloro-4-cyano-2-methylphenylamino)-1-(5-phenyl-1,3,4-oxadiazol-2-yl)propan-2-yl sulfamate] | 20 |
| CCC(=O)O[C@@H](C)[C@@H](Nc1ccc(C#N)c(Cl)c1C)c1nnc(-c2ccccc2)o1 [Example 84, (1R,2S)-1-(3-Chloro-4-cyano-2-methylphenylamino)-1-(5-phenyl-1,3,4-oxadiazol-2-yl)propan-2-yl propionate] | 25 |
| CC(=O)Oc1ccc(-c2nnc([C@H](Nc3ccc(C#N)c(Cl)c3C)[C@H](C)OC(C)=O)o2)cc1 [Example 73, 4-(5-((1R,2S)-2-Acetoxy-1-(3-chloro-4-cyano-2-methylphenylamino)propyl)-1,3,4-oxadiazol-2-yl)phenyl acetate] | 30 |
| CC(=O)O[C@@H](C)[C@@H](Nc1ccc(C#N)c(Cl)c1C)c1nnc(-c2ccc(C#N)cc2)o1 [Example 88, (1R,2S)-1-(3-Chloro-4-cyano-2-methylphenylamino)-1-(5-(4-cyanophenyl)-1,3,4-oxadiazol-2-yl)propan-2-yl acetate] | 110 |
| CC(=O)O[C@@H](C)[C@@H](Nc1ccc(C#N)c(Cl)c1C)c1nnc(-c2ccccc2)o1 [Example 76, (1R,2S)-1-(3-chloro-4-cyano-2-methylphenylamino)-1-(5-phenyl-1,3,4-oxadiazol-2-yl)propan-2-yl acetate] | 15 |
| Cc1c(N[C@@H](c2nnc(-c3ccc4[nH]ccc4c3)o2)[C@H](C)O)ccc(C#N)c1Cl [Example 98, 4-((1R,2S)-1-(5-(1H-Indol-5-yl)-1,3,4-oxadiazol-2-yl)-2-hydroxypropylamino)-2-chloro-3-methylbenzonitrile] | 80 |

Same assay, conditions: single determination or average of multiple determinations; read-out: Binding IC50 (nM), Compound AR-Binding Affinity

| SMILES | IC50 [nM] |
| --- | --- |
| C[C@H](O)[C@@H](Nc1ccc(C#N)c(Cl)c1)c1nnc(-c2ccc(S(C)(=O)=O)cc2)o1 [Example 48, 2-Chloro-4-((1R,2S)-2-hydroxy-1-(5-(4-(methylsulfonyl)phenyl)-1,3,4-oxadiazol-2-yl)propylamino)benzonitrile] | > 1000 |
| Cc1c(N[C@@H](c2nnc(-c3ccc(NC(=O)c4ccccc4)cc3)o2)[C@H](C)O)ccc(C#N)c1Cl [Example 77, N-(4-(5-((1R,2S)-1-(3-Chloro-4-cyano-2-methylphenylamino)-2-hydroxypropyl)-1,3,4-oxadiazol-2-yl)phenyl)benzamide] | 1000 |
| Cc1c(N[C@H](c2ccc(-c3nnco3)cc2)[C@@H](C)OS(N)(=O)=O)ccc(C#N)c1Cl [Example 94, (1R,2R)-1-(3-Chloro-4-cyano-2-methylphenylamino)-1-(4-(1,3,4-oxadiazol-2-yl)phenyl sulfamate)propan-2-yl sulfamate] | > 1000 |

The compounds below were run on young, orchidectomized rats (assay: Rat Herschberger assay (in vivo androgen and anabolic activity)). Conditions: organ weight, 10 mg/kg (po), treated for 4 days.
Description: The following is a typical procedure of the in vivo evaluation of the selective androgens of this invention. In particular, this assay looks primarily at the ability of the selective androgens of this invention to increase muscle size in an immature, castrated rat. In addition, androgenic effects are looked at primarily by weighing the prostate and seminal vesicles. Selective compounds will show a greater increase in the levator ani relative to the prostate and seminal vesicles when compared to testosterone treated, castrated animals or to intact animals that have not been treated. Immature Sprague Dawley male rats were obtained Charles River Laboratories (Stoneridge, N.Y.). All animals were maintained in a temperature and humidity controlled room with a 12 hr light: 12 hr dark cycle, with ad lib access to food (TD 291615, Teklad, Madison, Wis.) and water. Rats were anesthetized and orchidectomized (GDX) or sham surgery (SHAM) was performed. After a 7-day recovery period, the animals were randomized according to weight and assigned to treatment groups (n=5), SHAM, OVX+vehicle, OVX+Cpd treated. Testosterone propionate (TP 1 mg/kg in 5% DMSO/95% corn oil) was administered by once daily subcutaneous injections, while the compounds of the invention are dosed in vehicle (typically 20% cyclodextrin or 0.5% carboxymethylcellulose) was administered by once daily oral gavage. The rats were then dosed once daily for 4 days. All animals were euthanized via carbon dioxide inhalation 24 hs after the last dose. The prostate, seminal vesicle and levator ani and bulba cavernous (LABC) tissues were removed, weighed and recorded. Body weights were recorded for each animal at baseline and at sacrifice.
Prostate, seminal vesicle and levator ani bulbus cavernosus (LABC) are all represented as % relative to sham. After sacrifice, organ weights of young, orchidectomized rats treated with compound for 4 days are compared to sham operated animals.

| SMILES | LABC (levator ani bulbus cavernosus), % relative to sham [%] | Prostate, % relative to sham [%] | Seminal vesicle, % relative to sham [%] |
| --- | --- | --- | --- |
| Cc1c(N[C@@H](c2nnc(-c3ccccc3)o2)[C@@H](C)O)ccc(C#N)c1Cl [Example 3, 2-chloro-4-((1R,2R)-2-hydroxy-1-(5-phenyl-1,3,4-oxadiazol-2-yl)propylamino)-3-methylbenzonitrile] | 99 | 43 | 37 |
| Cc1c(N[C@@H](c2nnc(-c3ccccc3)o2)[C@H](C)O)ccc(C#N)c1Cl [Example 1, 2-chloro-4-((1R,2S)-2-hydroxy-1-(5-phenyl-1,3,4-oxadiazol-2-yl)propylamino)-3-methylbenzonitrile] | 85 | 46 | 69 |
